Counter-ions that a name gives are not always drawn.
Tests used:
[1] = tested on: metrazol induced convulsions; experiment: Antimetrazol activity in mice; assay type: in vivo; conditions: 10 mg/kg
Experimental: Experiments were also performed to determine the physiological relevance of neuroactive steroid and GABA receptor interactions by assessing the ability of compounds of the present invention to prevent metrazol induced convulsions in mice. Mice were injected with various doses of the test compounds of the invention, 10 minutes prior to the injection of metrazol. The time to onset of myoclonus (presence of forelimb clonic activity) induced by metrazol was determined by observing each mouse for a period of 30 minutes. In control mice, metrazol (85 mg/kg) will induce convulsion in 95% of the animals.
The anticonvulsant tests are similar to that described above.

[2] = molecular target: GABA receptor complex (GRC); experiment: [35S]TBPS binding in rat cerebral cortex P2 homogenate; conditions: for IC50: concentration to inhibit 50% of control [35S]TBPS binding, 2 nM [35S]TBPS; for IMAX (maximum inhibition): maximum inhibition of [35S]TBPS binding
Source text: To those skilled in the art, it is known that the modulation of [^35S]t-butylbicyclophosphorothionate ([^35S]TBPS) binding is a measure of the potency and efficacy of drugs acting at the GRC, which drugs may be of potential therapeutic value in the treatment of stress, anxiety, and seizure disorders (Squires, R. F., et al., Mol, Pharmacol., 23:326 (1983); Lawrence, L. J., et al., Biochem. Biophys. Res. Comm., 123:1130-1137 (1984); Wood, et al., Pharmacol, Exp. Ther., 231:572-576 (1984)). Several experiments were performed previously to determine the nature of the modulation of [^35S]TBPS as affected by neuroactive steroids. […] Furthermore, these compounds have high potency and efficacy at the GRC, with stringent structural requirements for such activity.
The procedures for performing this assay are fully discussed in: (1) Gee, K. W. et al., European Journal of Pharmacology, 136:419-423 (1987)); and (2) Gee, et al., Molecular Pharmacology 30:218 (1986). These procedures were performed as follows:
Brains from male Sprague-Dawley rats were removed immediately following sacrifice and the cerebral cortices dissected over ice. A P2 homogenate was prepared as previously described (Gee, et al., Molecular Pharmacology 30:218 (1986)). Briefly, the cortices were gently homogenized in 032 M sucrose followed by centrifugation at 1000×g for 10 minutes. The supernatant was collected and centrifuged at 9000×g for 20 minutes. The resultant P2 pellet was suspended as a 10% (original wet weight/volume) suspension in 50 mM Na/K phosphate buffer (pH 7.4) 200 mM NaCl to form the homogenate.
One hundred microliter […] aliquots of the P2 homogenate (0.5 milligrams (mg) protein) were incubated with 2 nanomolar (nM) [^35S]TBPS (70-110 curies/millimole; New England Nuclear, Boston, Mass.) in the presence or absence of the naturally occurring steroids or their synthetic derivatives to be tested. The tested compounds were dissolved in dimethylsulfoxide (Baker Chem. Co., Phillipsburg, N.J.) and added to the incubation mixture in 5 μL aliquots. The incubation mixture was brought to a final volume of 1 mL with buffer. Non-specific binding was defined as binding in the presence of […]. The effect and specificity of GABA (Sigma Chem. Co., St. Louis, Mo.) was evaluated by performing all assays in the presence of GABA plus (+)bicuculline (Sigma Chem. Co.). Incubations maintained at 25° C. for 90 minutes (steady state conditions) were terminated by rapid filtration through glass fiber filters (No. 32, Schleicher and Schuell, Keene, N.H.). Filter-bound radioactivity was quantitated by liquid scintillation spectrophotometry. Kinetic data and compound/[^35S]TBPS dose-response curves were analyzed by nonlinear regression using a computerized iterative procedure to obtain rate constants and IC50 (concentration of compound at which half-maximal inhibition of basal [^35S]TBPS binding occurs) values.
Various compounds were screened to determine their potential as modulators of [^35S]TBPS binding in vitro. These assays were performed in accordance with the above discussed procedures. Based on these assays, we have established the structure-activity requirements for their specific interaction at the GRC and their rank order potency and efficacy. Experimental data obtained in this assay for a number of 3α-hydroxypregnan-20-one derivatives is discussed in Gee, K. W. et al., European Journal of Pharmacology, 136:419-423 (1987) and in U.S. Pat. No. 5,232,917. Table 1 provides IC50 and maximum inhibition (IMAX) measurements for numerous compounds, including examples of compounds disclosed and claimed herein. IC50 is defined as concentration of compounds to inhibit 50% of control [^35S]TBPS binding. It is an indication of a compound's in vitro potency. Maximum inhibition is an indication of a compound's in vitro efficacy.

[3] = IP, 50% hpbcd, 10 min before metrazol 85 mg/kg

Structure (SMILES)	% Protected [1, 3] [%]	IC50 [2] [nM]	IMAX (maximum inhibition) [2] [%]	% Protected ([1]; PO, 10% hpbcd) [%]	% Protected ([1]; IP, 50% hpbcd, 10 min before metrazol 85 mg/kg, listed as 3α-Hydroxy-3β-(4′-hydroxybutyn-1-yl)-17β-methoxy-5β-androstane) [%]
COC1CCC2C3CCC4CC(O)(C#CCCO)CCC4(C)C3CCC12C (stereo not drawn) [3α-Hydroxy-3β-(4′-hydroxybutyn-1-yl)-17α-methoxy-5β-androstane]	50				
C#CC1(O)CCC2(C)C(CCC3C2CCC2(C)C(C(=O)CSCCC(=O)O)CCC32)C1 (stereo not drawn) [3β-ethynyl-3α-hydroxy-21-thiopropanoate-5β-pregnan-20-one sodium salt]		1020	101		
CC1(C2CCC3C4CCC5CC(O)(C(F)(F)F)CCC5C4CCC32C)OC(C(=O)[O-])C(C(=O)[O-])O1.[K+].[K+] (stereo not drawn) [20,20-[2′,3′-Bis(carboxy)ethylenedioxy]-3α-hydroxy-3β-trifuoromethyl-5β-19-norpregnane, dipotassium salt]				25	
COC1CCC2C3CCC4CC(O)(CCl)CCC4(C)C3CCC12C (stereo not drawn) [3β-Chloromethyl-3α-hydroxy-17β-methoxy-5α-androstane]	12.5	361	98		
CCCOC1CC2(C)C(CCC3C2CCC2(C)C(C(=O)CSc4cc[n+](C)cc4)CCC32)CC1O (stereo not drawn) [3α-Hydroxy-2β-propoxy-21-(pyrid-4-ylthio)-5α-pregnan-20-one N-methyl iodide]		126	101		
CO[C@H]1CC[C@H]2[C@@H]3CC[C@H]4C[C@H](O)[C@@H](OC(C)C)C[C@]4(C)[C@H]3CC[C@]12C [3α-Hydroxy-2β-isopropoxy-17β-methoxy-5α-androstane]		26	100		
COCC1(O)CCC2(C)C(CCC3C2CCC2(C)C(C(=O)CSc4ccncc4)CCC32)C1 (stereo not drawn) [3α-hydroxy-3β-methoxymethyl-21-(pyrid-4-ylthio)-5α-pregnan-20-one]		38	106		
COCC1(O)CCC2(C)C(CCC3C2CCC2(C)C(C(=O)CSc4ccc(F)cc4)CCC32)C1 (stereo not drawn) [21-(4′-fluorophenylthio)-3α-hydroxy-3β-methoxymethyl-5α-pregnan-20-one]		176	97		
C#CCC1(O)CCC2(C)C(CCC3C2CCC2(C)C(OC)CCC32)C1 (stereo not drawn) [3α-Hydroxy-17β-methoxy-3β-(2-propynyl)-5α-androstane]	12.5	387	101		
C#C[C@@]1(O)CC[C@@]2(C)[C@H](CC[C@@H]3[C@@H]2CC[C@]2(C)[C@@H](C(=O)CSCCCO)CC[C@@H]32)C1 [3β-ethynyl-3α-hydroxy-21-hydroxypropylthio-5β-pregnan-20-one]		93	97		
COCC1(O)CCC2(C)C(CCC3C2CCC2(C)C(C(=O)CS(=O)(=O)c4ccc(N5CCCC5)cc4)CCC32)C1 (stereo not drawn) [3α-Hydroxy-3β-methoxymnethyl-21-(4′-pyrrolidinophenyl)sulfonyl-5α-pregnan-20-one]		208	101		
C[C@]12CC[C@@H]3c4ccc(O)cc4CC[C@H]3[C@@H]1CC[C@@H]2O [17β-Estradiol, reference compound]			0		
CC(C)CCC[C@@H](C)[C@H]1CC[C@H]2[C@@H]3CC=C4C[C@@H](O)CC[C@]4(C)[C@H]3CC[C@]12C [Cholesterol, reference compound]			0		
COC1CCC2C3CCC4CC(O)(C#CCCO)CCC4(C)C3CCC12C (stereo not drawn) [3β-(4′-Hydroxybutyn-1′yl)-3α-hydroxy-17β-methoxy-5β-androsta] [3β-(4′-Hydroxy-1-′-butynyl)-3α-hydroxy-17β-methoxy-5β-androstane]		26	105		75
C#CC1(O)CCC2(C)C(CCC3C2CCC2(C)C(C(=O)C[S+]([O-])CCCO)CCC32)C1 (stereo not drawn) [3β-Ethynyl-3α-hydroxy-21-hydroxpropylsulfinyl-5β-pregnan-20-one]		782	107		
CC12CCC(O)CC1CCC1C2CCC2(C)C(C(=O)COc3ccc[n+]([O-])c3)CCC12 (stereo not drawn) [3α-Hydroxy-21-(3′-pyridyl)oxy-5β-pregnan-20-one N-oxide]		292	62		
CCCO[C@H]1C[C@@]2(C)[C@@H](CC[C@@H]3[C@@H]2CC[C@]2(C)[C@@H](C(=O)CSCCCS(=O)(=O)[O-])CC[C@@H]32)C[C@@H]1O.[Na+] [3α-hydroxy-2β-propoxy-21-thiopropanesulfonate-5α-pregnan-20-one sodium salt]		67	101		
C[C@@]1(O)CC[C@@]2(C)[C@@H](CC[C@@H]3[C@@H]2CC[C@]2(C)[C@@H](C(=O)COc4ccc5ncccc5c4)CC[C@@H]32)C1 [3α-hydroxy-3β-methyl-21-(quinolin-6-yloxy)-5α-pregnan-20-one]		76	96		
CC12CCC(O)CC1CCC1C2CCC2(C)C(C(=O)CS(=O)(=O)O)CCC12 (stereo not drawn) [3α-Hydroxy-21-sulfonic acid-5β-pregnan-20-one 21-sodium salt]		732	62		
C[n+]1cccc2cc(OCC(=O)C3CCC4C5CCC6CC(C)(O)CCC6(C)C5CCC34C)ccc21 (stereo not drawn) [3α-hydroxy-3β-methyl-21-(quinolin-6-yloxy)-5α-pregnan-20-one N-methyl iodide]		252	102		
CC12CCC(O)(C#CCCO)CC1CCC1C2CCC2(C)C(C(=O)CSc3ccncc3)CCC12 (stereo not drawn) [3α-Hydroxy-3β-(4-hydroxybutynyl)-21-(pyrid-4-ylthio)-5β-pregnan-20-one]	50	15	100		

From patent US6780853B1, “Neuroactive steroids of the androstane and pregnane series” (priority 1995, dated 2004)
